Measured values reported in paper PMC10582773, “A clathrin-related protein FaRRP1/SCD2 integrates ABA trafficking and signaling to regulate strawberry fruit ripening” (The Journal of Biological Chemistry, 2023).
pKd: −log10 of the molar value.

What was measured:
[1] = target: FaRRP1-His/MBP recombinant fusion protein (strawberry ripening-regulated protein 1) (Fragaria x ananassa (strawberry)); assay: ITC; 200 uM FaPYL2 dropped into 20 uM FaRRP1; ITC200 (MicroCal), 25 C; ITC buffer 20 mM Na2HPO4, 20 mM NaH2PO4, 300 mM NaCl, 20 mM MgCl2, pH 7.4; 20 injections
Sequence of FaRRP1-His/MBP recombinant fusion protein (strawberry ripening-regulated protein 1) (Fragaria x ananassa (strawberry)) (K9LRD7 entry or part of it): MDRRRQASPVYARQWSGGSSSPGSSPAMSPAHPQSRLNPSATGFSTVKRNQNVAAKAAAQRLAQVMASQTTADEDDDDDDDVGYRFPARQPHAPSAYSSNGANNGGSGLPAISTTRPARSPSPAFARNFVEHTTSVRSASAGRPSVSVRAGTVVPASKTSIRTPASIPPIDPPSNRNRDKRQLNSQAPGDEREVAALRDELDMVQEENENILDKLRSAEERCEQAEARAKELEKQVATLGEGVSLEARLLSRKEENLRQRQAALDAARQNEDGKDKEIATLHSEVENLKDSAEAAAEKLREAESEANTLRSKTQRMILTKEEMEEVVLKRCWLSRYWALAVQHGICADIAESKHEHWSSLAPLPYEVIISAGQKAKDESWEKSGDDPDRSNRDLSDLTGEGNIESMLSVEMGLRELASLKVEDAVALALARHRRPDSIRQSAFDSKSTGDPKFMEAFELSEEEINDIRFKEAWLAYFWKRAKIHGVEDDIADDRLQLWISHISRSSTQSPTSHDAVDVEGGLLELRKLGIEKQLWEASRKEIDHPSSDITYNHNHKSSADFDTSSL

[2] = target: FaRRP1-His/MBP fusion protein (Fragaria × ananassa, UniProt K9LRD7); assay: ITC binding of ABA to FaRRP1
Sequence of FaRRP1-His/MBP fusion protein (K9LRD7 1-566): as the sequence (K9LRD7 entry or part of it) above
Source text: (§1) The expression and purification of the recombinant proteins FaRRP1, FaPYL2, and FaABAR were done by a prokaryotic (E. coli) expression system. The cDNA encoding the FaRRP1, FaPYL2, and FaABAR was synthesized using the aforementioned method by PCR amplification using the primers listed in Table S1. The recombinant plasmids of pET-28a-FaPYL2-His, pMAL-C5X-FaRRP1-His/MBP, pGEX4T-1-FaRRP1-GST, pET-28a-FaABAR-His were constructed. After positive recombinants were identified by double-digesting and sequencing, the E. coli strain BL21 (DE3) cells with the recombinant plasmid were grown in 500 ml LB medium containing different antibiotics at 37 °C. On A600 at 0.6 to 0.7, 0.5 mM IPTG was added to inducibly express the fusion proteins overnight at 16 °C for 12 h. The cultures were harvested and suspended with 20 ml binding buffer (20 mM Na2HPO4, 20 mM NaH2PO4, 300 mM NaCl, 20 mM MgCl2, 10 mM imidazole, pH 7.4), then lysed by sonication in a Misonix Sonifier at 4 °C; finally, the supernatants were loaded onto BeaverBeads IDA- Ni^2+ (Beaver) columns and mixed gently by shaking at 4 °C for 60 min. […]
(§2) The purified protein was concentrated using an Amicon Ultra-4 centrifugal 3-kDa filter (Millipore) at 3000g for 20 min in a swing bucket rotor (Sigma). […] The binding reaction between fusion protein to ABA was detected by ITC. […]

[3] = target: FaPYL2-His fusion protein; assay: ITC binding of ABA to FaPYL2; parameters: species or system Fragaria × ananassa; conditions: 0.4 mM S-(+)-ABA titrated into 20 μM protein, pH 7.4, 25 °C, endothermic, saturation curve
Source text: as §1, §2

[4] = target: T1, FaABAR-His fusion protein (Fragaria × ananassa, UniProt C6KF71); assay: ITC binding of ABA to FaABAR
T1 sequence (C6KF71 1-1381): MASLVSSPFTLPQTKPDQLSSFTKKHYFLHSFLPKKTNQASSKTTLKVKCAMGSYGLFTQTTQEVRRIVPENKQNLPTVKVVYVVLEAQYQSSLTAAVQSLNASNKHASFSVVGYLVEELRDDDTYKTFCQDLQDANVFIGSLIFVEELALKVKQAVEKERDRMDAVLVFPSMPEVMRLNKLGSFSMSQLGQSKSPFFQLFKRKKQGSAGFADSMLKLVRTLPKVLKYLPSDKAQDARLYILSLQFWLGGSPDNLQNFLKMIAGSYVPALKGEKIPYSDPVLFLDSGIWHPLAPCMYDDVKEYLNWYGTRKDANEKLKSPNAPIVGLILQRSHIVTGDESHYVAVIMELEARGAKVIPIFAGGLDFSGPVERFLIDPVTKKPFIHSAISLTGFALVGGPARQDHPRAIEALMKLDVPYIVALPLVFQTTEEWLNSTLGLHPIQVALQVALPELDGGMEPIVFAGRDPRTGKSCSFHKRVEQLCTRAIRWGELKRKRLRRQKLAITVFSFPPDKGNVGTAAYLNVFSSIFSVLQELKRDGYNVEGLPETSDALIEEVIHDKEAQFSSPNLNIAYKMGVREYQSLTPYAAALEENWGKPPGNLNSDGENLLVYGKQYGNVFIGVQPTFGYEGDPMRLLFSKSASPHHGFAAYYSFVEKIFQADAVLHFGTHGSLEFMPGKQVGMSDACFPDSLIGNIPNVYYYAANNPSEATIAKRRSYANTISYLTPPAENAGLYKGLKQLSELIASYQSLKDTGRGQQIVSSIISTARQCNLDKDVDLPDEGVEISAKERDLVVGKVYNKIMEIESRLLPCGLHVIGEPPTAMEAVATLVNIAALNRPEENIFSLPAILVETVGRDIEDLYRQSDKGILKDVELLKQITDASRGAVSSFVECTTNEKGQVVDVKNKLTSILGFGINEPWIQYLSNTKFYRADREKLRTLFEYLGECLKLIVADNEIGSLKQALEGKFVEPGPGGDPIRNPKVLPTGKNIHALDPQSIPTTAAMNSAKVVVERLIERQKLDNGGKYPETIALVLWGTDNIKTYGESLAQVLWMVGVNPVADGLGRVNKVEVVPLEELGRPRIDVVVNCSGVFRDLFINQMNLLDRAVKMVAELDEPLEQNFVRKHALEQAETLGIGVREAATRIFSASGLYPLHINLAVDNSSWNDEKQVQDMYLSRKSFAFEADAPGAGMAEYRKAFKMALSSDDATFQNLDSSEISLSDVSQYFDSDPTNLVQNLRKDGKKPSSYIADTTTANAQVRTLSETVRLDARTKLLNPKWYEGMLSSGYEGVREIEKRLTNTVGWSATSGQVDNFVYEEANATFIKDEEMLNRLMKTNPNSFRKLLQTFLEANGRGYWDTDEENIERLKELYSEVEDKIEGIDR
Source text: as §1, §2

[5] = target: FaRRP1–FaPYL2 protein complexes; assay: ITC binding of ABA to FaRRP1–FaPYL2 complex; parameters: species or system Fragaria × ananassa; conditions: 0.4 mM S-(+)-ABA titrated into 20 μM complex, pH 7.4, 25 °C, endothermic
Method: (§3) Whether FaRRP1 affects the binding activity of FaPYL2 and FaABAR to ABA is unclear. For this, FaRRP1-His/MBP, FaPYL2-His, and FaABAR-His were purified and dialyzed into the same buffer (ITC Buffer) (20 mM Na2HPO4, 20 mM NaH2PO4, 300 mM NaCl, 20 mM MgCl2 pH 7.4). Then, the molar concentrations of FaRRP1-FaPYL2 and FaRRP1-FaABAR complexes were mixed into the same ratio and placed at 4 °C for 30 min. Finally, 1-fold protein peptide and 20-fold S- (+)-ABA were used for ITC assays (Fig. 5, D and H).
(§4) The purified protein was concentrated using an Amicon Ultra-4 centrifugal 3-kDa filter (Millipore) at 3000g for 20 min in a swing bucket rotor (Sigma). The protein was then desalted for buffer exchange using a HiTrap desalting column (GE Healthcare). The HiTrap desalting column was filled with ITC buffer (20 mM Na2HPO4, 20 mM NaH2PO4, 300 mM NaCl, 20 mM MgCl2, pH 7.4) to remove ethanol completely and equilibrate the column. The final concentration of the FaRRP1-His/MBP, FaPYL2-His, and FaABAR-His fusion protein was adjusted to 20 μM. The binding reaction between fusion protein to ABA was detected by ITC. To ensure the univariate of the experiment, an ITC buffer was used to prepare an ABA solution with 20 times protein concentration to ensure the matching of buffer environment between the two. The ITC analysis used 20-μM fusion protein and 400-μM ABA in an ITC200 calorimeter (MicroCal). […]

[6] = target: FaRRP1–FaABAR protein complexes (Fragaria x ananassa, UniProt C6KF71+K9LRD7); assay: ITC binding of ABA to FaRRP1–FaABAR complex; conditions: 0.4 mM S-(+)-ABA titrated into 20 μM complex, pH 7.4, 25 °C, exothermic
Sequence of FaRRP1–FaABAR protein complexes (K9LRD7 1-566, one chain of several): as the sequence (K9LRD7 entry or part of it) above
Method: as §3, §4

[7] = system: clathrin-mediated vesicle transport genes; assay: RT-qPCR of clathrin-mediated vesicle transport genes in ABA-incubated fruit discs; assay type: cell-based, Fragaria × ananassa; conditions: 100 μM ABA, white-stage fruit discs, vs control
Method: In vitro treatments were performed on fruits in the white stage using 100 μM ABA, and ABA-free buffer incubation was used as the control. The incubation was done as described by Song et al. ([77]). After a 2-h incubation followed by washing with double-distilled water, the discs were frozen in liquid nitrogen and kept at −80 °C until use. Samples are collected once at 0 h, 1 h, and 2 h. The experiment was performed with three replicates.
Total RNA was isolated from the fruit using the aforementioned method. The first-strand cDNA was used as the template for RT-qPCR, which was performed using the Trans Start Top UreenqPCR Super Mix Kit (TransGen Biotech) on the Light Cycler 96 real-time PCR system, with cDNA under different treatments as the template and strawberry Actin as the internal reference gene. The reaction procedures were as follows: predenaturation at 94 °C for 30 s, followed by 40 cycles of denaturation at 94 °C for 5 s, annealing at 60 °C for 15 s, and extension at 72 °C for 10 s. The experiment was duplicated three times independently. The Actin of the standard sample and the cDNA of the sample to be tested were repeated three times. Relative expression values were calculated by the 2^−ΔΔCt method, and SPSS22.0 software (https://www.spss.com) was used to analyze the experimental data.

[8] = system: FaRRP1-mediated endocytosis in root cells; assay: Endocytosis experiment under ABA treatment (FM4-64 staining of root cells); assay type: cell-based, Arabidopsis; conditions: 0.1 μM ABA 48 h, 10-days-old seedlings, 5 μM FM4-64 10 min; FaRRP1-OE line compared with WT
Method: The 10-days-old FaRRP1 OE and WT Arabidopsis seedlings growing under the normal condition were collected and soaked into the equilibrium solution [1/2 MS salt (pH=5.70), 1% sugar (w/v)] for 30 min. Then, the seedlings were treated with 0.1 μM ABA. After 48 h later, these seedlings were stained with 5 μM FM4-64 (Invitrogen) dye for 10 min, washed with equilibrium solution for 3 times, and root cells were observed under a confocal laser scanning microscope (Zeiss LSM 710 META). The experiment was repeated three times.

[9] = target: FaABAR-His recombinant fusion protein (magnesium chelatase H subunit) (Fragaria x ananassa (strawberry)); assay: ITC; 200 uM FaRRP1 dropped into 20 uM FaABAR; ITC200 (MicroCal), 25 C; ITC buffer 20 mM Na2HPO4, 20 mM NaH2PO4, 300 mM NaCl, 20 mM MgCl2, pH 7.4; 20 injections
[10] = 2 h, decreased in contrast to 1 h treatment

FaPYL2-His recombinant fusion protein (natural protein)
pKd [1]: 4.12

CC1=CC(=O)CC(C)(C)[C@@]1(O)/C=C/C(C)=C\C(=O)O [ABA, Abscisic acid]
N (stoichiometry) ABA-FaRRP1 ([2]; ITC fit, 0.4 mM ABA into 20 μM FaRRP1): 0.41 Sites
pKd ([2]; ITC, 0.4 mM S-(+)-ABA titrated into 20 μM protein, pH 7.4, 25 °C, exothermic, saturation curve): 3.85
pKd [3]: 3.99
N (stoichiometry) ABA-FaABAR ([4]; ITC fit, 0.4 mM ABA into 20 μM FaABAR): 8.60 Sites
pKd ([4]; ITC, 0.4 mM S-(+)-ABA titrated into 20 μM protein, pH 7.4, 25 °C, endothermic, could not reach saturation curve): 3.59
pKd [5]: 4.51
pKd [6]: 4.06
expression of FaAP1 ([7]; 1 h): significantly increased
expression of FaAP2 ([7]; 1 h): significantly increased
expression of FaCHC1 ([7]; 1 h): not changed
expression of FaCHC2 ([7]; 1 h): significantly increased
expression of FaCLC1 ([7]; 1 h): significantly increased
expression of FaCLC2 ([7]; 1 h): decreased considerably
expression of FaSCD1 ([7]; 1 h): significantly increased
expression of FaSCD2 ([7]; 1 h): significantly increased
expression of FaAP1 ([7]; 2 h): significantly decreased
expression of FaCHC1 ([7]; 2 h): quite upregulated
expression of FaCHC2 ([7]; 2 h): significantly decreased
expression of FaCLC2 ([7]; 2 h): quite upregulated
expression of FaSCD1 ([7]; 2 h): significantly decreased
expression of FaAP2 [7, 10]: significantly increased
expression of FaSCD2 [7, 10]: significantly increased
degree of PM internalization (FM4-64–labeled fluorescent signal) [8]: promote the degree of PM internalization

FaRRP1-His/MBP recombinant fusion protein (strawberry ripening-regulated protein 1) (natural protein)
pKd [9]: 3.77
